Experimental data taken from patent US20190160035A1, “METHOD OF TREATMENT” (QBIOTICS LIMITED, priority 2016, published 2019).

Assay: Example 2: body weights, clinical examinations and adverse events (VCOG-CTCAE)
Type: in vivo, dogs
Set-up: key to Local swelling at treatment site: VCOG-CTCAE Grade classification / Pain associated with treatment site: VCOG-CTCAE Grade classification / Transient tachypnoea: VCOG-CTCAE Grade classification / Transient lethargy: VCOG-CTCAE Grade classification / Transient tachycardia: VCOG-CTCAE Grade classification / Transient elevated blood pressure reading: VCOG-CTCAE Grade classification / Transient salivation: VCOG-CTCAE Grade classification / Emesis: VCOG-CTCAE Grade classification / Wound sinus: VCOG-CTCAE Grade classification: ‘mild’ VCOG-CTCAE classification Grade 1 with no intervention required
Experimental: Body weights were collected on each enrolled dog at screening, immediately pre-treatment, at approximately 24 hours, 48 hours post-treatment, and at 7(+1) days, 14(+1) days and 21(+2) days post treatment. The percent bodyweight change is calculated as the difference between immediate pre-treatment and Day 21 (+2) post-treatment values. A positive value indicates weight gain, a negative value indicates weight loss.
Clinical parameters such as rectal temperature (° C.), heart rate (HR) per minute, respiratory rate (RR) per minute, capillary refill time (CRT) (sec), systolic and diastolic blood pressure (mmHg), and mucosal colour were collected on each enrolled dog at screening, immediately pre-treatment, at approximately 24 hours, 48 hours post-treatment, and at 7(±1), 14(±1) and 21(±2) days post treatment. With each parameter evaluated for trends over time, and in context with all other contemporaneously collected parameters, the clinical parameter data is deemed unremarkable for all trial dogs.
Dogs were evaluated for adverse events (AEs) on Days 0 (pre-treatment), 1, 2, 7(±1), 14(±1) and 21(±2) as well as interim timepoints if needed. An AE was defined as any unfavorable and unintended sign, symptom, or disease temporally associated with the use of Compound 1, whether or not related to the product (VCOG-CTCAE 2011).

[1] = cohort 3, 0.2 mg/mL, out of 7 dogs

For `C/C=C(\C)C(=O)O[C@@H]1[C@@H](C)[C@@]2(O)[C@H]([C@@H]3C(C)(C)[C@]13OC(=O)[C@@H](C)CC)[C@@H]1O[C@]1(CO)[C@@H](O)[C@]1(O)C(=O)C(C)=C[C@H]12` [Compound 1, 12-tigloyl-13-(2-methylbutanoyl)-6,7-epoxy-4,5,9,12,13,20-hexahydroxy-1-tigliaen-3-one], the “Pain associated with treatment site: Incidence (%)” value (Grade 1, all patients (n = 27)) was 14.8%, the “Pain associated with treatment site: No. of events” value (Grade 1, all patients (n = 27)) was 4 and the “Pain associated with treatment site (oral analgesic): Incidence (%)” value (Grade 2, all patients (n = 27)) was 22.2%. For the same compound, the “Pain associated with treatment site (oral analgesic): No. of events” value (Grade 2, all patients (n = 27)) was 6, the “Bilateral otitis externa (oral antibiotic): Incidence (%)” value (all patients (n = 27)) was 3.7% and the “Bilateral otitis externa (oral antibiotic): No. of events” value (all patients (n = 27)) was 1. For the same compound, the “Bilateral otitis externa (oral antibiotic): VCOG-CTCAE Grade classification” value (all patients (n = 27)) was 2, the “Corneal ulcer (antibiotic ointment and oral analgesic): Incidence (%)” value (all patients (n = 27)) was 3.7% and the “Corneal ulcer (antibiotic ointment and oral analgesic): No. of events” value (all patients (n = 27)) was 1. The “Corneal ulcer (antibiotic ointment and oral analgesic): VCOG-CTCAE Grade classification” value (all patients (n = 27)) was 2, the “Emesis: Incidence (%)” value (all patients (n = 27)) was 7.4% and the “Emesis: No. of events” value (all patients (n = 27)) was 2. The “Emesis: VCOG-CTCAE Grade classification” value (all patients (n = 27)) was 1, the “Flatulence (oral antibiotic): Incidence (%)” value (all patients (n = 27)) was 3.7% and the “Flatulence (oral antibiotic): No. of events” value (all patients (n = 27)) was 1. For the same compound, the “Flatulence (oral antibiotic): VCOG-CTCAE Grade classification” value (all patients (n = 27)) was 2, the “Local swelling at treatment site: Incidence (%)” value (all patients (n = 27)) was 81.5% and the “Local swelling at treatment site: No. of events” value (all patients (n = 27)) was 22. For the same compound, the “Local swelling at treatment site: VCOG-CTCAE Grade classification” value (all patients (n = 27)) was 1, the “Number of AEs of ‘mild’ VCOG-CTCAE Grade 1 (no intervention required)” value (all patients (n = 27)) was 52 and the “Number of AEs requiring minimal medical intervention or additional analgesic therapy” value (all patients (n = 27)) was 12. The “Pain associated with treatment site (oral analgesic): VCOG-CTCAE Grade classification” value (all patients (n = 27)) was 2, the “Seborrhoea (oral antibiotic): Incidence (%)” value (all patients (n = 27)) was 3.7% and the “Seborrhoea (oral antibiotic): No. of events” value (all patients (n = 27)) was 1. The “Seborrhoea (oral antibiotic): VCOG-CTCAE Grade classification” value (all patients (n = 27)) was 2, the “Transient elevated blood pressure reading: Incidence (%)” value (all patients (n = 27)) was 3.7% and the “Transient elevated blood pressure reading: No. of events” value (all patients (n = 27)) was 1. The “Transient elevated blood pressure reading: VCOG-CTCAE Grade classification” value (all patients (n = 27)) was 1, the “Transient lethargy: Incidence (%)” value (all patients (n = 27)) was 18.5% and the “Transient lethargy: No. of events” value (all patients (n = 27)) was 5. The “Transient lethargy: VCOG-CTCAE Grade classification” value (all patients (n = 27)) was 1, the “Transient salivation: Incidence (%)” value (all patients (n = 27)) was 3.7% and the “Transient salivation: No. of events” value (all patients (n = 27)) was 1. For the same compound, the “Transient salivation: VCOG-CTCAE Grade classification” value (all patients (n = 27)) was 1, the “Transient tachycardia: Incidence (%)” value (all patients (n = 27)) was 7.4% and the “Transient tachycardia: No. of events” value (all patients (n = 27)) was 2. The “Transient tachycardia: VCOG-CTCAE Grade classification” value (all patients (n = 27)) was 1, the “Transient tachypnoea: Incidence (%)” value (all patients (n = 27)) was 51.9% and the “Transient tachypnoea: No. of events” value (all patients (n = 27)) was 14. For the same compound, the “Transient tachypnoea: VCOG-CTCAE Grade classification” value (all patients (n = 27)) was 1, the “Wound infection (oral antibiotic): Incidence (%)” value (all patients (n = 27)) was 7.4% and the “Wound infection (oral antibiotic): No. of events” value (all patients (n = 27)) was 2. For the same compound, the “Wound infection (oral antibiotic): VCOG-CTCAE Grade classification” value (all patients (n = 27)) was 2, the “Wound sinus: Incidence (%)” value (all patients (n = 27)) was 3.7% and the “Wound sinus: No. of events” value (all patients (n = 27)) was 1. For the same compound, the “Wound sinus: VCOG-CTCAE Grade classification” value (all patients (n = 27)) was 1, the “Total number of AEs identified” value (all patients (n = 27), 15 event types) was 64 and the “Clinical parameter data (temperature, HR, RR, CRT, blood pressure, mucosal colour)” value (all trial dogs, screening to Day 21) was “unremarkable”. For the same compound, the “Number of dogs that lost weight” value (cohort 1, 1.0 mg/mL) was 3, the “Number of dogs that gained weight during the trial” value (cohort 1, 1.0 mg/mL, out of 10 dogs, pre-treatment to Day 21) was 6 and the “Largest recorded weight loss” value (cohort 1, dog NVC-103) was 3.9%. For the same compound, the “Number of dogs that lost body weight” value (cohort 2, 0.5 mg/mL, out of 10 dogs) was 9, the “Largest recorded weight loss” value (cohort 2, dog GCV-204) was 5.6% and the “Number of dogs that gained weight” value [1] was 3. For the same compound, the “Number of dogs that lost weight” value [1] was 4, the “Largest recorded weight loss” value (cohort 3, dog NVC-304) was 9.2% and the Body weight gain (dog NVC-102, cohort 1) was 15%. For the same compound, the “Pain associated with treatment site: VCOG-CTCAE Grade classification” value (no intervention, all patients (n = 27)) was 1.
